Here are results for one substance from patent US6417010B1, “Methods and apparatus for synthesizing labeled combinatorial chemistry libraries” (Discovery Partners International, priority 1993, dated 2002).

The subject of this assay is Monoclonal antibody 3E7. As to the kind of experiment: Magnetic selection of peptide-bearing ELAMS by microbead-conjugated 3E7 antibody. Format: binding. The note with it: PBS, 16 hour incubation at 4° C., high strength magnet.

Procedure: After a 16 hour incubation at 4° C., beads which bind the 3E7 antibody can be selected using a high strength magnet. The identifier information of the selected beads is then analyzed with a model DAS-4001EM or DAS-4001 detector (Bio Medic Data Systems).

In the case of Tyr-Gly-Gly-L-Phe-L-Leu [YGGFL], the “selection of ELAMS by the 3E7 antibody” value is listed as “selected by the 3E7 antibody”.
